Results published in the supplement of paper PMC4628005.

Legend:
Conditions in all cases: drug exposure time: 96 h
Vorinostat = compound: O=C(CCCCCCC(=O)Nc1ccccc1)NO [Vorinostat]
Protocol: (§1)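 Breast cancer cell lines were grown in RPMI 1640 with 10% FBS on collagen I-coated 96-well plates and treated for 96 h (from 24 h after seeding) with 12 dilutions per drug, in triplicate. Growth was read by sulforhodamine B total-protein staining (absorbance 570 nm) relative to diluent control, and IC50 was calculated. The top dose was 1e-5 M for most drugs; Bortezomib went to 2e-5 M and Sirolimus and 17-AAG to 2e-6 M[…].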

Nutlin-3 = compound: COc1ccc(C2=N[C@@H](c3ccc(Cl)cc3)[C@@H](c3ccc(Cl)cc3)N2C(=O)N2CCNC(=O)C2)c(OC(C)C)c1 [Nutlin-3]
Protocol: as §1

Panobinostat = compound: Cc1[nH]c2ccccc2c1CCNCc1ccc(/C=C/C(=O)NO)cc1 [Panobinostat]
Protocol: as §1

Azacitidine = compound: Nc1ncn([C@@H]2O[C@H](CO)[C@@H](O)[C@H]2O)c(=O)n1 [Azacitidine]
Protocol: as §1

Tipifarnib = compound: Cn1cncc1[C@@](N)(c1ccc(Cl)cc1)c1ccc2c(c1)c(-c1cccc(Cl)c1)cc(=O)n2C [Tipifarnib]
Protocol: as §1

Erlotinib = compound: C#Cc1cccc(Nc2ncnc3cc(OCCOC)c(OCCOC)cc23)c1 [Erlotinib]
Protocol: as §1

Quisinostat = compound: Cn1cc(CNCC2CCN(c3ncc(C(=O)NO)cn3)CC2)c2ccccc21 [Quisinostat]
Protocol: as §1

Gefitinib = compound: COc1cc2ncnc(Nc3ccc(F)c(Cl)c3)c2cc1OCCCN1CCOCC1 [Gefitinib]
Protocol: as §1

Doxorubicin = compound: COc1cccc2c1C(=O)c1c(O)c3c(c(O)c1C2=O)C[C@@](O)(C(=O)CO)C[C@@H]3O[C@H]1C[C@H](N)[C@H](O)[C@H](C)O1 [Doxorubicin]
Protocol: as §1

Paclitaxel = compound: CC(=O)O[C@H]1C(=O)[C@@]2(C)[C@H]([C@H](OC(=O)c3ccccc3)[C@]3(O)C[C@H](OC(=O)[C@H](O)[C@@H](NC(=O)c4ccccc4)c4ccccc4)C(C)=C1C3(C)C)[C@]1(OC(C)=O)CO[C@@H]1C[C@@H]2O [Paclitaxel]
Protocol: as §1

Vandetanib = compound: COc1cc2/c(=N/c3ccc(Br)cc3F)nc[nH]c2cc1OCC1CCN(C)CC1 [Vandetanib]
Protocol: as §1

Methotrexate = compound: CN(Cc1cnc2nc(N)nc(N)c2n1)c1ccc(C(=O)N[C@@H](CCC(=O)O)C(=O)O)cc1 [Methotrexate]
Protocol: as §1

Decitabine = compound: Nc1ncn([C@H]2C[C@H](O)[C@@H](CO)O2)c(=O)n1 [Decitabine]
Protocol: as §1

5-Fluorouracil = compound: O=c1[nH]cc(F)c(=O)[nH]1 [5-Fluorouracil]
Protocol: as §1

Mitoxantrone = compound: O=C1c2c(O)ccc(O)c2C(=O)c2c(NCCNCCO)ccc(NCCNCCO)c21 [Mitoxantrone]
Protocol: as §1

Belinostat = compound: O=C(/C=C/c1cccc(S(=O)(=O)Nc2ccccc2)c1)NO [Belinostat]
Protocol: as §1

Cisplatin = compound: N.N.[Cl][Pt][Cl] [Cisplatin]
Protocol: as §1

Sorafenib = compound: CNC(=O)c1cc(Oc2ccc(NC(=O)Nc3ccc(Cl)c(C(F)(F)F)c3)cc2)ccn1 [Sorafenib]
Protocol: as §1

ARQ197 = compound: O=C1NC(=O)[C@@H](c2cn3c4c(cccc24)CCC3)[C@@H]1c1c[nH]c2ccccc12 [ARQ197]
Protocol: as §1

Serdemetan = compound: c1ccc2c(CCNc3ccc(Nc4ccncc4)cc3)c[nH]c2c1 [Serdemetan]
Protocol: as §1

Lapatinib = compound: CS(=O)(=O)CCNCc1ccc(-c2ccc3ncnc(Nc4ccc(OCc5cccc(F)c5)c(Cl)c4)c3c2)o1 [Lapatinib]
Protocol: as §1

Sunitinib = compound: CCN(CC)CCNC(=O)c1c(C)[nH]c(/C=C2\C(=O)Nc3ccc(F)cc32)c1C [Sunitinib]
Protocol: as §1

Tamoxifen = compound: CC/C(=C(\c1ccccc1)c1ccc(OCCN(C)C)cc1)c1ccccc1 [Tamoxifen]
Protocol: as §1

Docetaxel = compound: CC(=O)O[C@@]12CO[C@@H]1C[C@H](O)[C@@]1(C)C(=O)[C@H](O)C3=C(C)[C@@H](OC(=O)[C@H](O)[C@@H](NC(=O)OC(C)(C)C)c4ccccc4)C[C@@](O)([C@@H](OC(=O)c4ccccc4)[C@H]21)C3(C)C [Docetaxel]
Protocol: as §1

Brivanib = compound: Cc1cc2c(F)c(Oc3ncnn4cc(OC[C@@H](C)O)c(C)c34)ccc2[nH]1 [Brivanib]
Protocol: as §1

MI-219 = compound: CC(C)(C)C[C@H]1N[C@@H](C(=O)NCC[C@H](O)CO)[C@H](c2cccc(Cl)c2)[C@@]12C(=O)Nc1cc(Cl)c(F)cc12 [MI-219]
Protocol: as §1

Dasatinib = compound: Cc1nc(Nc2ncc(C(=O)Nc3c(C)cccc3Cl)s2)cc(N2CCN(CCO)CC2)n1 [Dasatinib]
Protocol: as §1

Sirolimus = compound: CO[C@H]1C[C@@H]2CC[C@@H](C)[C@@](O)(O2)C(=O)C(=O)N2CCCC[C@H]2C(=O)O[C@H]([C@H](C)C[C@@H]2CC[C@@H](O)[C@H](OC)C2)CC(=O)[C@H](C)/C=C(\C)[C@@H](O)[C@@H](OC)C(=O)[C@H](C)C[C@H](C)/C=C/C=C/C=C/1C [Sirolimus]
Protocol: (§2)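 Same SRB 96 h IC50 screen on breast cancer cell lines (RPMI 1640 + 10% FBS, collagen I-coated 96-well plates, triplicates, 12 dilutions), for drugs with a different dose range: Bortezomib up to 2e-5 M; Sirolimus and 17-AAG up to 2e-6 M. Sirolimus values at the 2e-6 M top dose are censored.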

17-AAG = compound: C=CCNC1=C2C[C@@H](C)C[C@H](OC)[C@H](O)[C@@H](C)/C=C(\C)[C@H](OC(N)=O)[C@@H](OC)/C=C\C=C(/C)C(=O)NC(=CC1=O)C2=O [17-AAG]
Protocol: as §2

Bortezomib = compound: CC(C)C[C@H](NC(=O)[C@H](Cc1ccccc1)NC(=O)c1cnccn1)B(O)O [Bortezomib]
Protocol: as §2

Row | Test System | IC50 (SRB growth assay) (Vorinostat) | IC50 (SRB growth assay) (Nutlin-3) | IC50 (SRB growth assay) (Panobinostat) | IC50 (SRB growth assay) (Azacitidine) | IC50 (SRB growth assay) (Tipifarnib) | IC50 (SRB growth assay) (Erlotinib) | IC50 (SRB growth assay) (Quisinostat) | IC50 (SRB growth assay) (Gefitinib) | IC50 (SRB growth assay) (Doxorubicin) | IC50 (SRB growth assay) (Paclitaxel) | IC50 (SRB growth assay) (Vandetanib) | IC50 (SRB growth assay) (Methotrexate) | IC50 (SRB growth assay) (Decitabine) | IC50 (SRB growth assay) (5-Fluorouracil) | IC50 (SRB growth assay) (Mitoxantrone) | IC50 (SRB growth assay) (Belinostat) | IC50 (SRB growth assay) (Cisplatin) | IC50 (SRB growth assay) (Sorafenib) | IC50 (SRB growth assay) (ARQ197) | IC50 (SRB growth assay) (Serdemetan) | IC50 (SRB growth assay) (Lapatinib) | IC50 (SRB growth assay) (Sunitinib) | IC50 (SRB growth assay) (Tamoxifen) | IC50 (SRB growth assay) (Docetaxel) | IC50 (SRB growth assay) (Brivanib) | IC50 (SRB growth assay) (MI-219) | IC50 (SRB growth assay) (Dasatinib) | IC50 (SRB growth assay) (Sirolimus) | IC50 (SRB growth assay) (17-AAG) | IC50 (SRB growth assay) (Bortezomib)
1 | EVSA-T | 380 nM | > 10000 nM | 3.19 nM | 3840 nM | 18.5 nM | > 10000 nM | 1.36 nM | 7520 nM | 8.01 nM | 1.09 nM | 2020 nM | 6030 nM | 2250 nM | 1740 nM | 2.68 nM | 85.1 nM | > 10000 nM | 2240 nM | 218 nM | 1130 nM | 2530 nM | 2200 nM | 4960 nM | 0.4 nM | > 10000 nM | > 10000 nM | > 10000 nM | 0.0536 nM | 5.76 nM | 2.74 nM
2 | HCC 38 | 610 nM | > 10000 nM | 6.57 nM | 746 nM | 294 nM | > 10000 nM | 3.31 nM | > 10000 nM | 5.51 nM | 1.39 nM | 5540 nM | 12.3 nM | 132 nM | 2790 nM | 1.89 nM | 250 nM | > 10000 nM | 5260 nM | 131 nM | 443 nM | 5520 nM | 9910 nM | > 10000 nM | 0.51 nM | > 10000 nM | > 10000 nM | 115 nM | 0.166 nM | 72.2 nM | 5.22 nM
3 | HCC 70 | 781 nM | > 10000 nM | 8.26 nM | 2380 nM | 85.1 nM | > 10000 nM | 5.48 nM | 9360 nM | 40.6 nM | 2.08 nM | 3960 nM | 30.1 nM | 2360 nM | 5360 nM | 74.3 nM | 356 nM | > 10000 nM | 6250 nM | 324 nM | 1570 nM | 3750 nM | 6810 nM | > 10000 nM | 0.539 nM | > 10000 nM | > 10000 nM | > 10000 nM | 0.222 nM | 37.3 nM | 2.84 nM
